Assay results published in patent US5047397A, “Linear analogs of atrial natriuretic peptides” (California Biotechnology Inc., priority 1988, dated 1991).
Where a SMILES comes first, the peptide text is derived from it. Bridges are numbered along the chain shown (N, C = ends). Where no end group is shown, it is not given here.

Assays:
[1] = molecular target: T1, specific ANP receptor sites on BASM or BAE cells (Bos taurus, UniProt P10730); assay: Competitive displacement receptor binding of (125I)-rANP(126-150) on cultured cells; design: species or system bovine; conditions: for Ki(app): concentration of unlabeled peptide displacing 50% of maximal binding of 0.5 nM (125I)-rANP(126-150), BASM or BAE cells; for prevention of (125I)-rANP(126-150) binding to BASM cell-associated receptors (FIG. 2): increasing concentrations of unlabeled peptide, BASM cells; for Ki: Table 2A, unit not given, in nM
T1 construct: specific receptor sites on BASM or BAE cells; endogenous in cells; host or cells: cultured BASM and BAE cells
T1 sequence (P10730 42-537): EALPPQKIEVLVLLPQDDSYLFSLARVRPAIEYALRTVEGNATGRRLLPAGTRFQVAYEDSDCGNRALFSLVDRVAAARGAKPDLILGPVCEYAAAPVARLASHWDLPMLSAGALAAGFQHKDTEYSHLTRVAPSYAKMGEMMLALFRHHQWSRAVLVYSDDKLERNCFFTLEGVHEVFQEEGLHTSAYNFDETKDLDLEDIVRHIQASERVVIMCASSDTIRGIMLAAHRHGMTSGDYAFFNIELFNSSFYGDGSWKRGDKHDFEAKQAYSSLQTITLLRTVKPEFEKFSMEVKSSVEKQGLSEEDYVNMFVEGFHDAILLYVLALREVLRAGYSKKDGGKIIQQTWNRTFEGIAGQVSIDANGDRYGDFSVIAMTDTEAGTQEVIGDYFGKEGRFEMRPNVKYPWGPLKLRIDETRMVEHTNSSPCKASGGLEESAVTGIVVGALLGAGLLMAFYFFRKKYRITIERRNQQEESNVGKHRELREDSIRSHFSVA
Text: Analogous "competitive displacement" receptor binding assays are considered commonplace in the art for examining specific ligand-receptor interactions.
Assuming these ANP analogs act at one or more ANP receptor sites, then increased receptor affinity should reflect increased biological potency.

[2] = system: anesthetized rats; assay: Diuresis in anesthetized rats; assay type: in vivo, rat; conditions: for urine flow rate (urine volume), diuretic response: versus baseline, FIG. 3; for in vivo diuretic/natriuretic activity in rats, in words: dose not stated
Experimental: In one set of examples, cannulae were placed in the left and right ureters and femoral vein of anesthetized rats and urine was collected from the ureters. Analog peptides were administered via the femoral vein. Prior to infusing the analog peptides, saline was infused for 30 minutes, urine was collected for 6 five-minute baseline periods and urine volume was determined gravimetrically. Following these baseline collection periods, various analog peptides were infused for 30 or 60 minutes and urine volume was measured in five-minute periods during infusion and for 60 minutes following infusion (at which time rats were returned to saline). Data was examined by averaging urine flow rates for six five-minute baseline control periods immediately preceding infusion, and comparing values during and after administration of peptides with the "baseline" control values. Responses to peptides are thus evaluated and plotted as the percent of baseline control responses. Specific examples are shown in FIGS. 3A-H. The error bars at the beginning of the graphs represent baseline values +standard deviations. Responses to peptides that are substantially above baseline ±SD can thus be interpreted as being statistically significant increases.

[3] = system: cortical-associated receptor sites of the kidney; assay: Competition for specific (125I)-rANP(123-150) binding in the kidney; design: species or system rat; conditions: competitor 10^-7 M, tracer 4 × 10^-12 M, n=3; for RATIO OF BOUND/FREE (125I)-rANP(123-150), Whole Kidney: tracer alone 122 ± 46; for RATIO OF BOUND/FREE (125I)-rANP(123-150), Outer Cortex: tracer alone 176 ± 23
[4] = system: isolated perfused rat kidney; assay: Natriuresis and diuresis in the isolated perfused rat kidney; conditions: for FENa (fractional sodium excretion) / FF (filtration fraction) / GFR (glomerular filtration rate) / RVR (renal vascular resistance) / UNa V (urinary sodium excretion rate) / V (urine flow rate): N=4
Text: The results are in Table 2C.

[5] = rANP(123-150) 10^-8 M in presence of AP57 10^-7 M
[6] = rANP(123-150) 10^-8 M, mean ± SE
[7] = rANP(123-150) 10^-9 M in presence of AP57 10^-7 M
[8] = rANP(123-150) 10^-9 M, mean ± SE
[9] = rANP(123-150) 10^-10 M in presence of AP57 10^-7 M
[10] = rANP(123-150) 10^-10 M, mean ± SE
[11] = rANP(123-150) 10^-11 M in presence of AP57 10^-7 M
[12] = rANP(123-150) 10^-11 M, mean ± SE
[13] = [C] period of section D: AP57 10^-7 M present, before rANP(123-150)

## CC[C@H](C)[C@@H]1NC(=O)[C@H](CCCNC(=N)N)NC(=O)[C@H](CC(=O)O)NC(=O)[C@H]([C@@H](C)CC)NC(=O)[C@H](CCCNC(=N)N)NC(=O)[C@@H](NC(=O)[C@H](CO)NC(=O)[C@H](CO)NC(=O)[C@@H](N)CCCNC(=N)N)CSSC[C@@H](C(=O)N[C@@H](CC(N)=O)C(=O)N[C@@H](CO)C(=O)N[C@@H](Cc2ccccc2)C(=O)N[C@@H](CCCNC(=N)N)C(=O)N[C@@H](Cc2ccc(O)cc2)C(=O)O)NC(=O)CNC(=O)[C@H](CC(C)C)NC(=O)CNC(=O)[C@H](CO)NC(=O)[C@H](CCC(N)=O)NC(=O)[C@H](C)NC(=O)CNC1=O [AP25, R--S--S--C--R--I--D--R--I--G--A--Q--S--G--L--G--C--N--S--F--R--Y] (H-RSSCRIDRIGAQSGLGCNSFRY-OH; disulfide 4-17)
[1]
  Ki(app): 8.62 nM
  prevention of (125I)-rANP(126-150) binding to BASM cell-associated receptors (FIG. 2): effectively prevent
[2]; infused at 5 mcg/min via femoral vein
  urine flow rate (urine volume), diuretic response: significantly increased

## rANP(123-150): sequence of ANP(126-150) which includes 3 additional upstream amino acids of the naturally occurring peptide (SLRRSSCFGGRIDRIGAQSGLGCNSFRY; not fully specified; ends and bridges not checked; UniProt P01161 123-150, looked up, fragment)
[3]
  RATIO OF BOUND/FREE (125I)-rANP(123-150), Whole Kidney: 0.63 ± 0.27
  RATIO OF BOUND/FREE (125I)-rANP(123-150), Outer Cortex: 0.77 ± 0.30
[4]; [5]
  FENa (fractional sodium excretion): 4.77 ± 1.22%
  FF (filtration fraction): 2.30 ± 0.47%
  GFR (glomerular filtration rate): 0.84 ± 0.13 mL/min
  RVR (renal vascular resistance): 2.63 ± 0.33 mmHg/ml/min
  UNa V (urinary sodium excretion rate): 6.47 ± 2.29 uEq/min
  V (urine flow rate): 132 ± 33 µL/min
[4]; [6]
  FENa (fractional sodium excretion): 4.12 ± 0.94%
  FF (filtration fraction): 2.23 ± 0.44%
  GFR (glomerular filtration rate): 0.80 ± 0.08 mL/min
  RVR (renal vascular resistance): 2.66 ± 0.32 mmHg/ml/min
  UNa V (urinary sodium excretion rate): 4.78 ± 1.15 uEq/min
  V (urine flow rate): 96.6 ± 24.0 µL/min
[4]; [7]
  FENa (fractional sodium excretion): 4.08 ± 0.72%
  FF (filtration fraction): 2.81 ± 0.40%
  GFR (glomerular filtration rate): 0.99 ± 0.07 mL/min
  RVR (renal vascular resistance): 2.79 ± 0.34 mmHg/ml/min
  UNa V (urinary sodium excretion rate): 6.03 ± 1.37 uEq/min
  V (urine flow rate): 139 ± 14 µL/min
[4]; [8]
  FENa (fractional sodium excretion): 2.78 ± 0.89%
  FF (filtration fraction): 2.30 ± 0.41%
  GFR (glomerular filtration rate): 0.82 ± 0.07 mL/min
  RVR (renal vascular resistance): 2.64 ± 0.35 mmHg/ml/min
  UNa V (urinary sodium excretion rate): 3.22 ± 0.92 uEq/min
  V (urine flow rate): 74.0 ± 14.8 µL/min
[4]; [9]
  FENa (fractional sodium excretion): 1.33 ± 0.20%
  FF (filtration fraction): 2.65 ± 0.20%
  GFR (glomerular filtration rate): 0.93 ± 0.04 mL/min
  RVR (renal vascular resistance): 2.80 ± 0.31 mmHg/ml/min
  UNa V (urinary sodium excretion rate): 1.76 ± 0.25 uEq/min
  V (urine flow rate): 70.6 ± 4.2 µL/min
[4]; [10]
  FENa (fractional sodium excretion): 1.21 ± 0.44%
  FF (filtration fraction): 1.76 ± 0.29%
  GFR (glomerular filtration rate): 0.66 ± 0.07 mL/min
  RVR (renal vascular resistance): 2.51 ± 0.26 mmHg/ml/min
  UNa V (urinary sodium excretion rate): 1.13 ± 0.43 uEq/min
  V (urine flow rate): 35.5 ± 5.7 µL/min
[4]; [11]
  FENa (fractional sodium excretion): 0.41 ± 0.11%
  FF (filtration fraction): 2.04 ± 0.15%
  GFR (glomerular filtration rate): 0.80 ± 0.08 mL/min
  RVR (renal vascular resistance): 2.50 ± 0.15 mmHg/ml/min
  UNa V (urinary sodium excretion rate): 0.45 ± 0.10 uEq/min
  V (urine flow rate): 31.0 ± 3.7 µL/min
[4]; [12]
  FENa (fractional sodium excretion): 0.72 ± 0.19%
  FF (filtration fraction): 1.33 ± 0.20%
  GFR (glomerular filtration rate): 0.53 ± 0.04 mL/min
  RVR (renal vascular resistance): 2.36 ± 0.20 mmHg/ml/min
  UNa V (urinary sodium excretion rate): 0.53 ± 0.14 uEq/min
  V (urine flow rate): 21.8 ± 1.7 µL/min

## CC[C@H](C)[C@@H]1NC(=O)[C@H](CCCNC(=N)N)NC(=O)[C@H](CC(=O)O)NC(=O)[C@H]([C@@H](C)CC)NC(=O)[C@@H](NC(=O)[C@H](CO)NC(=O)[C@H](CO)NC(=O)[C@@H](N)CCCNC(=N)N)CSSC[C@@H](C(=O)N[C@@H](CC(N)=O)C(=O)N[C@@H](CO)C(=O)N[C@@H](Cc2ccccc2)C(=O)N[C@@H](CCCNC(=N)N)C(=O)N[C@@H](Cc2ccc(O)cc2)C(=O)O)NC(=O)CNC(=O)[C@H](CC(C)C)NC(=O)CNC(=O)[C@H](CO)NC(=O)[C@H](CCC(N)=O)NC(=O)[C@H](C)NC(=O)CNC1=O [AP54, R--S--S--C--I--D--R--I--G--A--Q--S--G--L--G--C--N--S--F--R--Y] (H-RSSCIDRIGAQSGLGCNSFRY-OH; disulfide 4-16)
[1]
  receptor binding / activity as judged by Ki, in words: does not bind to the receptor
  Ki(app): > 200 nM
[2]
  in vivo diuretic/natriuretic activity in rats, in words: appears inactive in vivo

## CC[C@H](C)[C@@H]1NC(=O)[C@H](CCCNC(=N)N)NC(=O)[C@H](CC(=O)O)NC(=O)[C@H]([C@@H](C)CC)NC(=O)[C@H](CCCNC(=N)N)NC(=O)CNC(=O)CNC(=O)[C@H](Cc2ccccc2)NC(=O)[C@@H](NC(=O)[C@H](CO)NC(=O)[C@H](CO)NC(=O)[C@@H](N)CCCNC(=N)N)CSSC[C@@H](C(N)=O)NC(=O)[C@H](C)NC(=O)CNC1=O [AP57, R-S-S-C-F-G-G-R-I-D-R-I-G-A-C-NH2] (H-RSSCFGGRIDRIGAC-NH2; disulfide 4-15)
[1]
  Ki: 8.2
[3]
  RATIO OF BOUND/FREE (125I)-rANP(123-150), Whole Kidney: 1.27 ± 0.32
  RATIO OF BOUND/FREE (125I)-rANP(123-150), Outer Cortex: 1.68 ± 0.44
[4]; 10^-7 M
  natriuretic/diuretic activity in the isolated perfused rat kidney, in words: not active
[4]; AP57 10^-7 M alone, mean ± SE
  FENa (fractional sodium excretion): 0.24 ± 0.08%
  FF (filtration fraction): 1.37 ± 0.22%
  GFR (glomerular filtration rate): 0.55 ± 0.07 mL/min
  RVR (renal vascular resistance): 2.27 ± 0.17 mmHg/ml/min
  UNa V (urinary sodium excretion rate): 0.17 ± 0.04 uEq/min
  V (urine flow rate): 13.8 ± 2.0 µL/min
[4]; [13]
  FENa (fractional sodium excretion): 0.18 ± 0.04%
  FF (filtration fraction): 1.57 ± 0.27%
  GFR (glomerular filtration rate): 0.65 ± 0.06 mL/min
  RVR (renal vascular resistance): 2.21 ± 0.21 mmHg/ml/min
  UNa V (urinary sodium excretion rate): 0.17 ± 0.05 uEq/min
  V (urine flow rate): 16.3 ± 2.0 µL/min
[4]; pretreatment of the isolated kidney with 10^-7 M AP57
  modulation of renal responses to rANP(123-150), in words: increased the potency of rANP(123-150)
[2]
  in vivo diuretic/natriuretic activity in rats, in words: natriuretic and diuretic activities

## CC[C@H](C)[C@@H]1NC(=O)[C@H](CCCNC(=N)N)NC(=O)[C@H](CC(=O)O)NC(=O)[C@H]([C@@H](C)CC)NC(=O)[C@H](CCCNC(=N)N)NC(=O)CNC(=O)CNC(=O)[C@H](Cc2ccccc2)NC(=O)[C@@H](N)CSSC[C@@H](C(N)=O)NC(=O)[C@H](C)NC(=O)CNC1=O [AP37, C-F-G-G-R-I-D-R-I-G-A-C-NH2] (H-CFGGRIDRIGAC-NH2; disulfide 1-12)
[1]
  Ki: 13.40
  prevention of (125I)-rANP(126-150) binding to BASM cell-associated receptors (FIG. 2): effectively prevent
[2]; infused at 10 mcg/min via femoral vein
  urine flow rate (urine volume), diuretic response: significantly increased
